# Results reported in publication PMC9698057, “Insights into Antimalarial Activity of N-Phenyl-Substituted Cinnamanilides” (Molecules, 2022).
# Several values for one entry are separate records, joined by “and”; a condition that tells them apart may be missing. Identical values can stand only once. Like-named read-outs stand apart in the source and are kept apart here.
# Assays:
# [1] = tested on: Plasmodium falciparum 3D7/MRA-102; assay: In vitro antiplasmodial activity; type: cell-based; conditions: for IC50: chloroquine-sensitive strain 3D7/MRA-102, 48 h incubation, n = 3, read-out: Pf IC50 ± SD; for antiplasmodial activity in words: P. falciparum 3D7/MRA-102
# [2] = Lipophilicity determination by RP-HPLC (log of capacity factor k); type: physicochemical; conditions: C18, isocratic methanol 72%/water 28%
# Method: Among the important parameters characterizing the physicochemical properties of the compounds, we studied the lipophilicity and electronic relations in the molecule. […] The lipophilicity was determined using RP-HPLC as the logarithm of capacity factor k. The retention times of individual compounds were determined under isocratic conditions, with methanol as an organic modifier in the mobile phase using end-capped non-polar C18 stationary RP columns. In addition, the lipophilicity expressed as log P and Clog P was calculated using two commercially available programs: ACD/Percepta ver.
# A chromatographic column Symmetry® C18 5 μm, 4.6 × 250 mm, Part No. W21751W016 (Waters Corp., Milford, MA, USA) was used. The HPLC separation process was monitored by the EZ CHROM Elite® software ver. 3.2.0 (Hitachi High Technologies America). The total flow of the column was 1.0 mL/min, injection 10 μL, column temperature 40 °C, and sample temperature 10 °C. The detection wavelength 214 nm was chosen. A KI methanolic solution was used for the dead time (tD) determination. Retention times (tR) were measured in minutes. […] The capacity factors were calculated according to the formula k = (tR − tD)/tD, where tR is the retention time of the solute and tD is the dead time obtained using an unretained analyte. Each experiment was repeated three times.
# [3] = tested on: Mycobacterium tuberculosis H37Ra/ATCC 25177; parameters: method as in PMID 30087309, PMID 32916979; conditions: M. tuberculosis H37Ra/ATCC 25177; cited from earlier work
# THP1-Blue™ NF-κB cells = conditions: read-out: cytotoxicity IC50; human monocytic leukemia cell line THP1-Blue™ NF-κB; cited from earlier work
# [4] = Plasmodium falciparum, 3D7, 48 h
smiles,measurement,setting,value
"CCN(CC)CCCC(C)Nc1ccnc2cc(Cl)ccc12 (stereo not shown) [CQ, chloroquine, reference compound]",IC50,[1]; [4],0.5 ± 0.2 µM
"Cc1cccc(NC(=O)/C=C/c2ccccc2)c1 [Compound 2, (2E)-N-(3-methylphenyl)-3-phenyl-prop-2-enamide]",log k,[2],0.2729
same,IC50,[1]; [4],21.6 µM
same,IC50,[1],21.9 ± 6.3 µM
same,Mtb MIC,[3],67.4 µM
Cc1ccc(NC(=O)/C=C/c2ccccc2)cc1 [Compound 3],log k,[2],0.2640
same,IC50,[1]; [4],> 35 µM
same,Mtb MIC,[3],134 µM
O=C(/C=C/c1ccccc1)Nc1cccc(C(F)(F)F)c1 [Compound 6],log k,[2],0.4859
same,IC50,[1]; [4],> 35 µM
same,Mtb MIC,[3],27.5 µM
same,IC50,THP1-Blue™ NF-κB cells,11.6 ± 1.13 µM
Cc1ccc(C)c(NC(=O)/C=C/c2ccccc2)c1 [Compound 7],log k,[2],0.2691
same,IC50,[1]; [4],> 35 µM
same,Mtb MIC,[3],254 µM
O=C(/C=C/c1ccccc1)Nc1ccc(Cl)cc1Cl [Compound 8],log k,[2],0.5278
same,antiplasmodial activity in words,[1],inactive
same,IC50,[1]; [4],> 35 µM
O=C(/C=C/c1ccccc1)Nc1cc(Cl)ccc1Cl [Compound 9],log k,[2],0.5799
same,IC50,[1]; [4],> 35 µM
same,Mtb MIC,[3],876 µM
O=C(/C=C/c1ccccc1)Nc1c(Cl)cccc1Cl [Compound 10],log k,[2],0.0632
same,IC50,[1]; [4],> 35 µM
same,Mtb MIC,[3],876 µM
O=C(/C=C/c1ccccc1)Nc1ccc(Cl)c(Cl)c1 [Compound 11],log k,[2],0.6821
same,IC50,[1]; [4],> 35 µM
same,Mtb MIC,[3],27.4 µM
same,IC50,THP1-Blue™ NF-κB cells,6.28 ± 2.32 µM
O=C(/C=C/c1ccccc1)Nc1cc(Cl)cc(Cl)c1 [Compound 12],log k,[2],0.8155
same,IC50,[1]; [4],> 35 µM
same,Mtb MIC,[3],27.4 µM
same,IC50,THP1-Blue™ NF-κB cells,2.43 ± 1.06 µM
O=C(/C=C/c1ccccc1)Nc1ccc(Br)cc1Br [Compound 13],log k,[2],0.6152
same,antiplasmodial activity in words,[1],inactive
same,IC50,[1]; [4],> 35 µM
same,Mtb MIC,[3],>339 µM
O=C(/C=C/c1ccccc1)Nc1c(Br)cccc1Br [Compound 14],log k,[2],0.0992
same,IC50,[1]; [4],> 35 µM
same,Mtb MIC,[3],167 µM
"O=C(/C=C/c1ccccc1)Nc1cc(C(F)(F)F)cc(C(F)(F)F)c1 [Compound 15, (2E)-N-[3,5-bis(trifluoromethyl)phenyl]-3-phenylprop-2-enamide]",log k,[2],0.9814
same,IC50,[1]; [4],6.5 ± 3.6 µM
same,Mtb MIC,[3],22.3 µM
same,IC50,THP1-Blue™ NF-κB cells,2.17 ± 1.19 µM
COc1ccc([N+](=O)[O-])cc1NC(=O)/C=C/c1ccccc1 [Compound 16],log k,[2],0.1581
same,IC50,[1]; [4],> 35 µM
same,Mtb MIC,[3],>859 µM
O=C(/C=C/c1ccccc1)Nc1ccc([N+](=O)[O-])cc1C(F)(F)F [Compound 17],log k,[2],0.3794
same,IC50,[1]; [4],> 35 µM
same,Mtb MIC,[3],>381 µM
"O=C(/C=C/c1ccccc1)Nc1ccc([N+](=O)[O-])c(C(F)(F)F)c1 [Compound 18, (2E)-N-[4-nitro-3-(trifluoromethyl)phenyl]-3-phenylprop-2-enamide]",log k,[2],0.5004
same,IC50,[1]; [4],2.2 ± 1.9 µM
same,Mtb MIC,[3],>381 µM
O=C(/C=C/c1ccccc1)Nc1cc(Cl)ccc1F [Compound 19],log k,[2],0.36 and 0.3692
same,IC50,[1]; [4],16 ± 4.2 µM
same,Mtb MIC,[3],>465 µM
O=C(/C=C/c1ccccc1)Nc1cc(Br)ccc1F [Compound 20],log k,[2],0.4875
same,IC50,[1]; [4],> 35 µM
same,Mtb MIC,[3],199 µM
O=C(/C=C/c1ccccc1)Nc1ccc(Br)c(F)c1 [Compound 21],IC50,[1]; [4],10.3 ± 4.6 µM
same,Mtb MIC,[3],>414 µM
O=C(/C=C/c1ccccc1)Nc1ccc(C(F)(F)F)c(F)c1 [Compound 22],log k,[2],0.5789
same,IC50,[1]; [4],9.3 ± 5.3 µM
same,Mtb MIC,[3],>414 µM
"O=C(/C=C/c1ccccc1)Nc1cc(F)ccc1Br [Compound 23, (2E)-N-(2-bromo-5-fluorophenyl)-3-phenylprop-2-enamide]",log k,[2],0.4588
same,IC50,[1]; [4],3.8 ± 0.61 µM
same,Mtb MIC,[3],199 µM
"O=C(/C=C/c1ccccc1)Nc1ccc(Br)cc1Cl [Compound 24, (2E)-N-(4-bromo-2-chlorophenyl)-3-phenylprop-2-enamide]",log k,[2],0.6710
same,IC50,[1]; [4],0.58 ± 0.002 µM
same,Mtb MIC,[3],>766 µM
O=C(/C=C/c1ccccc1)Nc1ccc(Br)c(Cl)c1 [Compound 25],log k,[2],0.6611
same,IC50,[1]; [4],8.2 ± 4.7 µM
same,Mtb MIC,[3],>383 µM
same,IC50,THP1-Blue™ NF-κB cells,6.5 ± 1 µM
O=C(/C=C/c1ccccc1)Nc1ccc(Cl)cc1Br [Compound 26],log k,[2],0.5476
same,IC50,[1]; [4],> 35 µM
same,Mtb MIC,[3],>383 µM
O=C(/C=C/c1ccccc1)Nc1cc(C(F)(F)F)ccc1Cl [Compound 27],log k,[2],0.6178
same,IC50,[1]; [4],> 35 µM
same,Mtb MIC,[3],785 µM
O=C(/C=C/c1ccccc1)Nc1cc(C(F)(F)F)ccc1Br [Compound 28],log k,[2],0.5561
same,IC50,[1]; [4],> 35 µM
same,Mtb MIC,[3],>348 µM
O=C(/C=C/c1ccccc1)Nc1ccc(F)cc1C(F)(F)F [Compound 29],log k,[2],0.1607
same,IC50,[1]; [4],> 35 µM
same,Mtb MIC,[3],>414 µM
O=C(/C=C/c1ccccc1)Nc1ccc(Cl)cc1C(F)(F)F [Compound 30],log k,[2],0.4113
same,IC50,[1]; [4],> 35 µM
same,Mtb MIC,[3],>394 µM
O=C(/C=C/c1ccccc1)Nc1ccc(Br)cc1C(F)(F)F [Compound 31],log k,[2],0.4683
same,IC50,[1]; [4],> 35 µM
same,Mtb MIC,[3],>348 µM
"O=C(/C=C/c1ccccc1)Nc1c(F)cc(F)cc1F [Compound 32, (2E)-3-phenyl-N-(2,4,6-trifluorophenyl)-prop-2-enamide]",log k,[2],−0.0831
same,IC50,[1]; [4],> 35 µM
same,Mtb MIC,[3],>462 µM
O=C(/C=C/c1ccccc1)Nc1cc(F)c(F)c(F)c1 [Compound 33],log k,[2],0.4893
same,IC50,[1]; [4],4.3 ± 2.4 µM
same,Mtb MIC,[3],>462 µM
O=C(/C=C/c1ccccc1)Nc1cc(Cl)c(Cl)cc1Cl [Compound 34],log k,[2],0.8373
same,IC50,[1]; [4],> 35 µM
"O=C(/C=C/c1ccccc1)Nc1cc(Cl)c(Cl)c(Cl)c1 [Compound 35, (2E)-3-phenyl-N-(3,4,5-trichlorophenyl)prop-2-enamide]",log k,[2],0.9671
same,IC50,[1]; [4],13 ± 3.8 µM
same,Mtb MIC,[3],>395 µM
"O=C(/C=C/c1ccccc1)Nc1c(Br)cc(C(F)(F)F)cc1Br [Compound 36, (2E)-N-[2,6-dibromo-4-(trifluoromethyl)-phenyl]-3-phenylprop-2-enamide]",log k,[2],0.4321
same,IC50,[1]; [4],2 ± 1.9 µM
same,Mtb MIC,[3],>287 µM
O=C(/C=C/c1ccccc1)Nc1c(Br)cc(F)c(Cl)c1Br [Compound 37],log k,[2],0.3139
same,IC50,[1]; [4],> 35 µM
same,Mtb MIC,[3],>298 µM
"NNC(=O)c1ccncc1 [INH, isoniazid, reference compound]",Mtb MIC,[3],36.6 µM
